The values below come from patent publication US12404532B2, “Composition for producing glucosylated steviol glycoside including glucosyltransferase and method of producing glucosylated steviol glycoside using the same” (CJ CHEILJEDANG CORPORATION, priority 2019, dated 2025).

Entries after “also recorded” stand apart in the source; their conditions may differ. Bounds are passed on as bounds.

Series [1] concerns Lactobacillus mali crude enzyme solution including the enzyme including the amino acid sequence of SEQ ID NO: 1. Kind of series: Glucose transfer to steviol glycoside by crude enzyme solution (HPLC). Type of series: biochemical. The following applies: 6% substrate, 6% white sugar, 50 mM sodium acetate buffer pH 5.0, 40 °C, 24 hours. Here is the method:
6% Rebaudioside A (purecircle) or 6% Stevioside (carbosynth), and 6% white sugar (CJ CheilJedang) were dissolved in a 50 mM sodium acetate buffer (pH 5.0), and then the Lactobacillus mali crude enzyme solution including the enzyme including the amino acid sequence of SEQ ID NO: 1 was added thereto, and allowed to react at 40° C. for 24 hours. Thereafter, whether glucosylated Rebaudioside A or glucosylated Stevioside was produced was confirmed by HPLC, and the results are shown in FIGS. 2 to 5. Meanwhile, HPLC analysis conditions are as follows:
FIGS. 2 and 4 show HPLC analysis results before the enzyme reaction, and FIGS. 3 and 5 show HPLC analysis results after the enzyme reaction.

In series [2] the test system is enzyme including the amino acid sequence of SEQ ID NO: 1. Kind of series: Glucose transfer to steviol glycoside by purified recombinant enzyme (HPLC). The following applies: 6% substrate, 6% white sugar, 50 mM sodium acetate buffer pH 5.0, 40 °C, 24 hours, purified enzyme of Example 5-1. Type of series: biochemical, Lactobacillus mali. The method, then:
A polynucleotide encoding the amino acid sequence of SEQ ID NO: 1 was prepared by a polynucleotide synthesis method (Bioneer Corp.), and the obtained polynucleotide was inserted into a pBT7-N-His vector, which was then transformed into E. coli BL21(DE3). The transformed E. coli was smeared on a plate medium containing ampicillin to obtain a recombinant strain (microorganism).
The recombinant E. coli strain was seeded in 5 mL of an LB medium containing ampicillin, and seed culture was carried out at 37° C. until optical density at 600 nm reached 2.0. The seed culture broth was added to 500 mL of an LB medium containing ampicillin, and main culture was carried out. Thereafter, when optical density at 600 nm reached 0.4, 0.1 mM isopropyl β-D-thiogalactopyranoside (IPTG) was added to induce mass-expression of the enzyme including the amino acid sequence of SEQ ID NO: 1. During the process, an agitation speed was 180 rpm, and culture temperature was maintained at 37° C. After IPTG addition, the agitation speed was 120 rpm, and culture temperature was maintained at 16° C.
The culture broth was centrifuged at 10,000×g at 4° C. for 20 minutes to obtain a cell pellet. A 50 mM tris-HCl buffer solution was added to the pellet, and re-suspended as a cell solution. The cell solution was sonicated using a sonicator. […]

Series [3] is classed as physicochemical. The method, then: The solubility of steviol glycoside and glucosylated steviol glycoside was measured.
Specifically, the solubility of Rebaudioside A (RA), Stevioside (STV), glucosylated Rebaudioside A (RA-Glu) of Example 4, and glucosylated Stevioside (STV-Glu) of Example 4 was measured, respectively.
Each 6 g of Rebaudioside A, Stevioside, glucosylated Rebaudioside A, and glucosylated Stevioside was mixed with 10 mL, and then dissolved by sonication at 50° C. for 60 minutes. The resultant was incubated for 1 week in a water bath at 5° C., 15° C., 25° C., 35° C., 45° C., or 55° C. Thereafter, the resulting solution was centrifuged at 12,000 rpm for 10 minutes, and 1 mL of the supernatant was collected and dried in an oven at 105° C. to measure the solubility, which is shown in Table 4.

The nature of series [4]: Panel evaluation of actual sweetness and quality of sweetness. The following applies: for Actual Sweetness / Evaluation of Quality of Sweetness: dissolved in water, provided to panels. An excerpt:
The known material (i.e., α-(1,4) glucosylated Rebaudioside A) and the α-(1,6) glucosylated Rebaudioside A of Example 4 were independently dissolved in water and provided to panels for evaluation of actual sweetness and quality of sweetness.

Series [5] can be described thus: Sugar hydrolysis activity by reducing sugar determination method (DNS method). The following applies: 200 mM sugar solution, 40 °C, 10 minutes. Type of series: biochemical. The method, then:
To confirm the presence of the desired enzyme, sugar hydrolysis activity of each fraction was examined by a reducing sugar determination method (DNS method).
A 200 mM sugar solution and each fraction were mixed at a ratio of 1:1 in a 50 mM sodium acetate buffer, and allowed to react in a water bath at 40° C. for 10 minutes, followed by inactivation at 100° C. A DNS reagent was added thereto at a ratio of 1:3, and then mixed and allowed to react at 100° C. for 5 minutes, and then DNS reaction was immediately stopped on ice. Thereafter, optical density (OD) of the DNS reagent was measured at 575 nm, and the activity was confirmed from a constructed fructose standard curve. At this time, 1 unit is defined by the amount (mL) of an enzyme that produces 1 μmole of fructose per 1 minute.

Consider `C=C1C[C@@]23CC[C@H]4[C@@](C)(CCC[C@@]4(C)C(=O)O[C@@H]4O[C@H](CO)[C@@H](O)[C@H](O)[C@H]4O)[C@@H]2CC[C@]1(O[C@@H]1O[C@H](CO)[C@@H](O)[C@H](O[C@@H]2O[C@H](CO)[C@@H](O)[C@H](O)[C@H]2O)[C@H]1O[C@@H]1O[C@H](CO)[C@@H](O)[C@H](O)[C@H]1O)C3` [RA, Rebaudioside A, reference compound], for which the “Conversion rate into glucosylated steviol glycoside” value in series [1] was “about 90%”. Moreover, the “Conversion rate into glucosylated Rebaudioside A” value in series [2] is “about 90%”.
Consider `C=C1C[C@@]23CC[C@H]4[C@@](C)(CCC[C@@]4(C)C(=O)O[C@@H]4O[C@H](CO[C@H]5O[C@H](CO)[C@@H](O)[C@H](O)[C@H]5O)[C@@H](O)[C@H](O)[C@H]4O)[C@@H]2CC[C@]1(O[C@@H]1O[C@H](CO)[C@@H](O)[C@H](O[C@@H]2O[C@H](CO)[C@@H](O)[C@H](O)[C@H]2O)[C@H]1O[C@@H]1O[C@H](CO)[C@@H](O)[C@H](O)[C@H]1O)C3` [RA-Glu, glucosylated Rebaudioside A], for which, in series [3], the “Solubility (%)” value is listed as ≥ 40 ↑ %; the “Solubility as compared with Stevioside and Rebaudioside A, respectively” value was “remarkably increased solubility”. For the same molecule, the “Actual Sweetness” value in series [4] was 26. For the same molecule, in series [4] (listed as α-(1,6) glucosylated Rebaudioside A), the “Evaluation of Quality of Sweetness” value is given as “better quality of sweetness; also recorded: Gives sweet taste in the beginning, has”. Besides, the “Sweetness as compared with the α-(1,4) glucosylated Rebaudioside A” value in series [4] (summary of Table 5) is recorded as “high sweetness”.
As for `C=C1C[C@@]23CC[C@H]4[C@@](C)(CCC[C@@]4(C)C(=O)O[C@@H]4O[C@H](CO)[C@@H](O)[C@H](O)[C@H]4O)[C@@H]2CC[C@]1(O[C@@H]1O[C@H](CO)[C@@H](O)[C@H](O)[C@H]1O[C@@H]1O[C@H](CO)[C@@H](O)[C@H](O)[C@H]1O)C3` [STV, Stevioside, reference compound], the “Conversion rate into glucosylated steviol glycoside” value in series [1] is reported as “about 90%”.
For the molecule `C=C1C[C@@]23CC[C@H]4[C@@](C)(CCC[C@@]4(C)C(=O)O[C@@H]4O[C@H](CO[C@H]5O[C@H](CO)[C@@H](O)[C@H](O)[C@H]5O)[C@@H](O)[C@H](O)[C@H]4O)[C@@H]2CC[C@]1(O[C@@H]1O[C@H](CO)[C@@H](O)[C@H](O)[C@H]1O[C@@H]1O[C@H](CO)[C@@H](O)[C@H](O)[C@H]1O)C3` [STV-Glu, glucosylated Stevioside], in series [3], the “Solubility (%)” value is recorded as ≥ 40 ↑ %; the “Solubility as compared with Stevioside and Rebaudioside A, respectively” value is recorded as “remarkably increased solubility”.
As to “α-(1,4) glucosylated Rebaudioside A [reference compound]”, in series [4], the “Actual Sweetness” value is recorded as 19 and the “Evaluation of Quality of Sweetness” value is recorded as “Bitter taste is stronger than sweet taste,”.

B1: 75 kDa protein of Fraction No. 2: 75 kDa protein purified from Lactobacillus mali culture, identified by LC-MS as amino acid sequence SEQ ID NO: 1; glucosyltransferase (protein, listed as Lactobacillus mali)
chain: MDQMVLETQQWLNKTYGGVSGFGSVTEDGLTGWGTVYGLTRALQHELGITGLVNNFGPTSKQKFNNIAKTIVVGYTGNIAYIIQGGFWCKGITPGEFDGKFSADTASAVTTMKTKAGLADTSSSVDGNFMAALLNMSSFDLLTGGDSKVREMQQQLNHDYLAYTGILPCDGIYQRDTNSALIYALQAEEKISTSVATGAYGATTKKDTPTVKEGTTNNFVRILQWGLYVNNKAYTGAFDGVYDSAVVAAVKEFEETMALDSTDGTSAGVDIFMSLLTSAGNPDRSAIACDTSYQLNATRVATLKNAGYSIVGRYLTGTVGSGTSERAKNLTTDEITAITTGGLKIFPIYQDGASDKEAYFTAAQGKTDGTKAVYAAQDLGFKEGVVIYFAVDADIQAGDIAGSAKVYFEALYDIVTSYGYEVGIYGTRNVSATIISAGLATKAFISDMSTGYSGNLGYSIPDEWAFDQFSEISIGDFAIDKDATTSARETATGSFGVGGESGYGNAEDLAKINTIIDALSQKKNFSYLSGLKIEKTSKEYEIPGFAVDFYVQVKFEASVSEPGDNVGVVYNVSNGKFESDFTDTIAGVVALSDEINKEDINSALTELSSLINNGQIWVEPVTKGSDAGIALHIKSTFDHTLDSGETIELEYEIIIDEIFHKIEVVPTGVPNTTANDYNSLFPNGIKEFVGFSIVAGLATGGIYYVVTAVGATAAVVTTSILALIALLKNNDTGV
Take B1: in series [5], the Sugar hydrolysis activity entry was “had sugar hydrolysis activity”.
